Assays:
cdk2/cyclinA = cdk2/cyclinA (Homo sapiens, UniProt P24941); experiment: Cyclin dependent kinase 2 assay (cdk2/cyclinA), 32P incorporation, filter plate; format: biochemical; settings: retinoblastoma substrate, 12 mM ATP, 25° C., 15 minutes; read-out: Inhibition of Cdks: IC50 Cdk2/A
Procedure: (§1) Cyclin Dependent Kinase 1 and 2 Assays (cdk1/cyclinB, cdk2/cyclinA, cdk2/cyclinE)
(§2) Enzyme assays for IC50 determinations and kinetic evaluation are performed in a 96-well filter plate (Millipore MADVN6550) in a total volume of 0.1 mL of 20 mM TRIS (tris[hydroxymethyl]aminomethane), at pH 7.4, 50 mM NaCl, 1 mM dithiothreitol, 10 mM MgCl2, […] containing 0.25 μCi of [^32P]ATP, 20 ng of enzyme (either cdk1/B, cdk2/A, or cdk2E), 1 μg retinoblastoma and appropriate dilutions of the particular invention compound. All components except the ATP are added to the wells, and the plate is placed on a plate mixer for 2 minutes. The reaction is begun by addition of [^32P]ATP, and the plate is incubated at 25° C. for 15 minutes. The reaction is terminated by addition of 0.1 mL of 20% TCA. The plate is kept at 4° C. for at least 1 hour to allow the substrate to precipitate. The wells are then washed 5 times with 0.2 mL of 10% TCA and ^32P incorporation determined with a beta plate counter (Wallac Inc., Gaithersburg, Md.).

cdk4/cyclinD = cdk4/cyclinD (Homo sapiens, UniProt P11802); experiment: Cyclin Dependent Kinase 4 (cdk-4) Assay, 32P incorporation, filter plate; format: biochemical; settings: retinoblastoma substrate, 25 μM ATP, 25° C., 15 minutes; read-out: Inhibition of Cdks: IC50 Cdk4D
Chain of cdk4/cyclinD (P11802 whole entry, species assumed): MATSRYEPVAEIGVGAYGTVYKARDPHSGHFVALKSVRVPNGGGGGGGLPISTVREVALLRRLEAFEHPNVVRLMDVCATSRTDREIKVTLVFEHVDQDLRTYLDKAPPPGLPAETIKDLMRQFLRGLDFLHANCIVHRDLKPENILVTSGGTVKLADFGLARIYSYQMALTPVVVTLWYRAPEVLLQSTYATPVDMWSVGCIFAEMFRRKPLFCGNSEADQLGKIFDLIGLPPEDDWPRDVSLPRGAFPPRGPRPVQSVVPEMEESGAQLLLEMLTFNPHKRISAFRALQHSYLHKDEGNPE
Chain of cdk4/cyclinD (P24385 whole entry partner, species assumed): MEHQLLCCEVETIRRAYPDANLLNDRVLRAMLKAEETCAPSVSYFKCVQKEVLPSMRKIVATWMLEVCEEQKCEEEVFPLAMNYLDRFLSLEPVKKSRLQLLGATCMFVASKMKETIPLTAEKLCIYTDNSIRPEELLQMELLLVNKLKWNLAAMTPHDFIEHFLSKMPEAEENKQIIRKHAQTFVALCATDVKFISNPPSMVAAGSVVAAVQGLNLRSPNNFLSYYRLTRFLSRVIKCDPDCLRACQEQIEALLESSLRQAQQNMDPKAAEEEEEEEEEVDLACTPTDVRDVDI
Procedure: Cyclin Dependent Kinase 4 (cdk-4) Assay
Enzyme assays for IC50 determinations and kinetic evaluation are performed in 96-well filter plates (Millipore MADVN6550). The total volume is 0.1 mL containing a final concentration of 20 mM TRIS (tris[hydroxymethyl]aminomethane), at pH 7.4, 50 mM NaCl, 1 mM dithiothreitol, 10 mM MgCl2, 25 μM ATP containing 0.25 μCi of [^32P]ATP, 20 ng of cdk4, 1 μg of retinoblastoma, and appropriate dilutions of a compound of the present invention. All components except the ATP are added to the wells, and the plate is placed on a plate mixer for 2 minutes. The reaction is started by adding [^32P]ATP, and the plate is incubated at 25° C. for 15 minutes. The reaction is terminated by addition of 0.1 mL of 20% trichloroacetic acid (TCA). The plate is kept at 4° C. for at least 1 hour to allow the substrate to precipitate. The wells are then washed 5 times with 0.2 mL of 10% TCA and ^32P incorporation is determined with a beta plate counter (Wallac Inc., Gaithersburg, Md.).

cdk1/cyclinB = cdk1/cyclinB (Homo sapiens, UniProt P06493); experiment: Cyclin dependent kinase 1 assay (cdk1/cyclinB), 32P incorporation, filter plate; format: biochemical; settings: retinoblastoma substrate, 12 mM ATP, 25° C., 15 minutes; read-out: Inhibition of Cdks: IC50 Cdk1/B
Chain of cdk1/cyclinB (P06493 whole entry, species assumed): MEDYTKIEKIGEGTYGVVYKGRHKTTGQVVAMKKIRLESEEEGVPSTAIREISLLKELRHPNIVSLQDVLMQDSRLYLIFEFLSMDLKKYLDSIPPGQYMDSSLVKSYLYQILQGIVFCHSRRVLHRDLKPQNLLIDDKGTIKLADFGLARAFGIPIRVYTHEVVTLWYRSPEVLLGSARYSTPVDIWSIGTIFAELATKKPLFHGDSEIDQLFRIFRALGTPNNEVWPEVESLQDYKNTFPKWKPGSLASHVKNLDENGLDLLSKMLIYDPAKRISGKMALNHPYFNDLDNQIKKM
Chain of cdk1/cyclinB (P14635 whole entry partner, species assumed): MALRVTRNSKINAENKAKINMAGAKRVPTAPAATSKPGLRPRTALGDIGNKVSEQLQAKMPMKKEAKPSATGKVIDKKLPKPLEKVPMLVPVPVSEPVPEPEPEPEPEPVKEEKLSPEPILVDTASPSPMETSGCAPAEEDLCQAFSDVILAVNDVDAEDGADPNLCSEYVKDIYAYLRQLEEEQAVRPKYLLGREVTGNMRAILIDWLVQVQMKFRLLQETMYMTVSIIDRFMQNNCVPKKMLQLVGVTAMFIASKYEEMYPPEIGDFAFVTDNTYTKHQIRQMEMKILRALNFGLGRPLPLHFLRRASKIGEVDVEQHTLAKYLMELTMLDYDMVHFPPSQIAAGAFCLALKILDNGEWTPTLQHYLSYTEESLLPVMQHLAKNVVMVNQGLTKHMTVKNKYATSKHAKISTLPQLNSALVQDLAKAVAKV
Procedure: as §1, §2

cdk2/cyclinE = cdk2/cyclinE (Homo sapiens, UniProt P24941); experiment: Cyclin dependent kinase 2 assay (cdk2/cyclinE), 32P incorporation, filter plate; format: biochemical; settings: retinoblastoma substrate, 12 mM ATP, 25° C., 15 minutes; read-out: Inhibition of Cdks: IC50 Cdk2/E
Procedure: as §1, §2

Row | IC50 (cdk2/cyclinA) | IC50 (cdk4/cyclinD) | IC50 (cdk1/cyclinB) | melting point | IC50 (cdk2/cyclinE) | Structure (SMILES)
1 | > 5000 nM | 2100 nM | > 5000 nM | 238 °C (dec.) | > 5000 nM | Cc1cc(NC(=O)NC2CCCCC2)nc2nc(Nc3ccc(N4CCNCC4)cc3)ncc12 [Compound 12, 1-Cyclohexyl-3-[5-methyl-2-(4-piperazin-1-yl-phenylamino)-pyrido[2,3-d]pyrimidin-7-yl]-urea]
2 | 1070 nM | > 5000 nM | > 5000 nM | 225 °C (dec.) | > 5000 nM | CC(C)(C)NC(=O)Nc1ccc2cnc(Nc3ccc(N4CCN(C(=O)OC(C)(C)C)CC4)cc3)nc2n1 [Compound 79, 4-{4-[7-(3-tert-Butyl-ureido)-pyrido[2,3-d]pyrimidin-2-ylamino]-phenyl}-piperazine-1-carboxylic acid tert-butyl ester]
3 | 43 nM | 25 nM | 418 nM | 200 °C (dec.) | 55 nM | CC(C)[C@H](CO)NC(=O)Nc1ccc2cnc(Nc3ccc(N4CCNCC4)cc3)nc2n1 [Compound 88, 1-((R)-1-Hydroxymethyl-2-methyl-propyl)-3-[2-(4-piperazin-1-yl-phenylamino)-pyrido[2,3-d]pyrimidin-7-yl]-urea]
4 | 130 nM | 37 nM | 463 nM | 206 to 208 °C (dec.) | 130 nM | CC(=O)N1CCN(c2ccc(Nc3ncc4ccc(NC(=O)NC(C)(C)C)nc4n3)cc2)CC1 [Compound 5, 1-{2-[4-(4-Acetyl-piperazin-1-yl)-phenylamino]-pyrido[2,3-d]pyrimidin-7-yl}-3-tert-butyl-urea]
5 | > 5000 nM | > 5000 nM | > 5000 nM | 234 °C (dec.) | > 5000 nM | Cc1cc(NC(=O)NC2CCCC2)nc2nc(Nc3ccc(N4CCNCC4)cc3)ncc12 [Compound 53, 1-Cyclopentyl-3-[5-methyl-2-(4-piperazin-1-yl-phenylamino)-pyrido[2,3-d]pyrimidin-7-yl]-urea]
6 | 157 nM | 1050 nM | 442 nM | 217 to 220 °C | 140 nM | NCCNC(=O)Nc1ccc2cnc(Nc3ccc(F)cc3)nc2n1 [Compound 98, 1-(2-Amino-ethyl)-3-[2-(4-fluoro-phenylamino)-pyrido[2,3-d]pyrimidin-7-yl]-urea]
7 | > 5000 nM | > 5000 nM | > 5000 nM | 223 to 225 °C | > 5000 nM | CCCNC(=O)Nc1cc(C)c2cnc(Nc3ccc(N4CCNCC4)cc3)nc2n1 [Compound 111, 1-[5-Methyl-2-(4-piperazin-1-yl-phenylamino)-pyrido[2,3-d]pyrimidin-7-yl]-3-propyl-urea]
8 | > 5000 nM | > 5000 nM | > 5000 nM | 221 to 225 °C (dec.) | > 5000 nM | CC(=O)N1CCN(c2ccc(Nc3ncc4ccc(NC(=O)NCCCN5CCOCC5)nc4n3)cc2)CC1 [Compound 103, 1-{2-[4-(4-Acetyl-piperazin-1-yl)-phenylamino]-pyrido[2,3-d]pyrimidin-7-yl}-3-(3-morpholin-4-yl-propyl)-urea]
9 | 22 nM | 7 nM | 69 nM | 228 °C (dec.) | 35 nM | C[C@@H]1CN(c2ccc(Nc3ncc4ccc(NC(=O)NC5CCCCC5)nc4n3)cc2)C[C@H](C)N1 [Compound 50, 1-Cyclohexyl-3-{2-[4-(cis-3,5-dimethyl-piperazin-1-yl)-phenylamino]-pyrido[2,3-d]pyrimidin-7-yl}-urea]
10 | > 5000 nM | > 5000 nM | > 5000 nM | 220 °C (dec.) | > 5000 nM | O=C(Nc1ccc2cnc(Nc3ccc(N4CCNCC4)cc3)nc2n1)N1CCNCC1 [Compound 87, Piperazine-1-carboxylic acid [2-(4-piperazin-1-yl-phenylamino)-pyrido[2,3-d]pyrimidin-7-yl]-amide]
